# Reference: US11400106B2, “Methods for inhibiting microbe growth” (priority 2018, dated 2022)
# Where two headings read alike, the source gives them in different places.
# Key:
# Enterococcus faecium = system: Enterococcus faecium
# Procedure: (§1) In the following experiments, bacterial cells were cultured in 96-well microtiter plates in cation-adjusted Mueller-Hinton Broth (MHB) for 18 h at 37° C. The main strains used were E. coli (K-12 BW25113) (placed in stationary incubator) and S. aureus (Newman Strain) (incubated at 250 r.p.m). Knockout strains (ΔtolcC and ΔychM) were used from the Keio knockout collection (Baba et al., Construction of Escherichia coli K-12 in-frame, single-gene knockout mutants: the Keio collection. Mol Syst Biol 2, 2006 0008, doi:10.1038/msb4100050 (2006)). For MIC determination and checkerboard analyses, Clinical & Laboratory Standards Institute (CLSI) protocol was used. […] DiSC3 loading of S. aureus cells was performed as previously described (Farha et al., Collapsing the proton motive force to identify synergistic combinations against Staphylococcus aureus. Chemistry & biology 20, 1168-1178, doi:10.1016/j.chembiol.2013.07.006 (2013)). CCCP concentration of 20 μM was used. pH adjustments were made by addition of HCl or NaOH. INT assay and ATP bioluminescence assays were performed as previously described (Farha et al., Collapsing the proton motive force to identify synergistic combinations against Staphylococcus aureus. Chemistry & biology 20, 1168-1178, doi:10.1016/j.chembiol.2013.07.006 (2013)). For chemical-genomic studies, the Keio library was grown overnight in cation-adjusted MHB broth, in 384-well plates. From these, treatment plates (25 mM sodium bicarbonate, or a sterile water control) were inoculated and grown for 15 hours at 37° C., in a stationary incubator. Data was normalized according to Mangat et al (Mangat et al., Rank ordering plate data facilitates data visualization and normalization in high-throughput screening. J Biomol Screen 19, 1314-1320, doi:10.1177/1087057114534298 (2014)), with gene products and GO terms mined from EcoCyc. The GFP promoter library (Keseler et al., EcoCyc: fusing model organism databases with systems biology. Nucleic Acids Res 41, D605-612, doi:10.1093/nar/gks1027 (2013)) was grown for 18 hours at ambient temperature with the same inoculation strategy as with the Keio collection. The analysis pipeline of Zaslaver et al (Zaslaver et al., A comprehensive library of fluorescent transcriptional reporters for Escherichia coli. Nat Methods 3, 623-628, doi:10.1038/nmeth895 (2006)) was used to generate maps of promoter activity, from which lists of promoters with increased or decreased activity were compiled.
# E. coli [1] = conditions: 25 mM sodium bicarbonate
# Procedure: as §1
# S. aureus [2] = conditions: S. aureus grown with 25 mM sodium bicarbonate vs untreated
# Procedure: as §1
# S. aureus [3] = assay: FIC index of pentamidine combined with various salts (checkerboard); format: cell-based, Staphylococcus aureus; conditions: combination of pentamidine isethionate with each salt; FICI≤0.5 synergy, 1-2 additivity, >4 antagonism
# Procedure: as §1
# E. coli [4] = assay: microbe, parasite or virus in culture; format: cell-based, Escherichia coli
# Pseudomonas aeruginosa = assay: MIC determination against Pseudomonas aeruginosa; format: cell-based
# Procedure: as §1, with “The GFP promoter library (Keseler et al., EcoCyc: fusing model organism databases with systems biology. Nucleic Acids Res 41, D605-612, doi:10.1093/nar/gks1027 (2013)) was grown for 18 hours at ambient temperature with the same inoculation strategy as with the Keio collection. The analysis pipeline of Zaslaver et al (Zaslaver et al., A comprehensive library of fluorescent transcriptional reporters for Escherichia coli. Nat Methods 3, 623-628, doi:10.1038/nmeth895 (2006)) was used to generate maps of promoter activity, from which lists of promoters with increased or decreased activity were compiled.” left out
# Klebsiella pneumoniae = assay: MIC determination against Klebsiella pneumoniae; format: cell-based
# Procedure: as §1, with “The GFP promoter library (Keseler et al., EcoCyc: fusing model organism databases with systems biology. Nucleic Acids Res 41, D605-612, doi:10.1093/nar/gks1027 (2013)) was grown for 18 hours at ambient temperature with the same inoculation strategy as with the Keio collection. The analysis pipeline of Zaslaver et al (Zaslaver et al., A comprehensive library of fluorescent transcriptional reporters for Escherichia coli. Nat Methods 3, 623-628, doi:10.1038/nmeth895 (2006)) was used to generate maps of promoter activity, from which lists of promoters with increased or decreased activity were compiled.” left out
# S. aureus [5] = conditions: 25 mM sodium bicarbonate, BCECF-AM
# Procedure: S. aureus cells were loaded with the pH sensitive dye BCECF-AM and were washed and resuspended in PBS. Following baseline readings, PBS (grey circles) or 25 mM sodium bicarbonate (black circles) were added at the arrow and fluorescence measured over time. A standard curve for intracellular pH calibration was used to calculate intracellular pH.
# Acinetobacter baumannii = assay: MIC determination against Acinetobacter baumannii; format: cell-based; conditions: Acinetobacter baumannii
# Procedure: as §1
# S. aureus [6] = assay: microbe, parasite or virus in culture; conditions: Staphylococcus aureus
# P. aeruginosa [7] = assay: Susceptibility testing of P. aeruginosa clinical isolates (n=92); format: cell-based, Pseudomonas aeruginosa; conditions: Pseudomonas aeruginosa, P. aeruginosa, n = 92 isolates, bicarbonate as in label
# Procedure: (§2) This study included one hundred (n=100) clinical isolates of methicillin-resistant Staphylococcus aureus (MRSA) and ninety-two (n=92) clinical isolates of P. aeruginosa. All samples were collected from patients at Hamilton Health Sciences hospitals (Hamilton, Ontario, Canada). Isolates, regardless of site of infection, were selected for study if they were resistant to three or more antibiotics. The isolates were cultured on plates and subsequently tested for antimicrobial susceptibility. Initial culture and antibiotic susceptibility testing were performed by Hamilton General Hospital General Microbiology Laboratory using a VITEK 2 Automated System and its Advanced Expert System (bioMerieux) and were compliant with Clinical & Laboratory Standards Institute (CLSI) antibiotic susceptibility testing formulations. Both quantitative minimum inhibitory concentration (MIC) and CLSI breakpoints were reported for each antibiotic. Additionally, a total of 7 conjunctival-sourced ocular isolates of Streptococcus pneumoniae collected by the International Health Management Associates (IHMA) from various locations in the United States were used in the study.
# (§3) Antimicrobial sensitivity of the pathogenic strains was determined in compliance with the CLSI protocol. Mueller-Hinton agar plates were used to streak out bacterial species and the direct colony suspension method for inoculum preparation was used to make a suspension of the organism in saline to the density of a McFarland 0.5 turbidity standard. Cation-adjusted Mueller-Hinton broth (CA-MHB) manufactured according to ISO technical standard was used for susceptibility testing in standard 96-well microdilution plates. All antibiotics were purchased as powders from Sigma-Aldrich Canada Co. (Oakville, Canada) and dissolved in appropriate solvent to provide stock solutions as instructed by the manufacturer. Desired test antibiotic solutions were diluted in solvent at a highest test concentration resulting in 256 μg/mL. Where sodium bicarbonate was used, aqueous sterile-filtered sodium bicarbonate solution (7.5% stock) from Sigma-Aldrich Canada Co. (Oakville, Canada) was diluted to the desired concentration in CAMHB. Plates were incubated for 18 hours at 37° C. and read at 600 nm on a Tecan, infinite M1000 PRO plate reader. In accordance with CLSI, methods with appropriate medium supplements for fastidious streptococci (2.5% lysed horse blood, Innovative Research, Inc., Novi, Mich.) were used. […] All MICs in the study were conducted in duplicate.
# MRSA [8] = assay: Time kill curve; format: cell-based, Staphylococcus aureus; conditions: 256 μg/mL azithromycin, 50 mM bicarbonate, 4 hours
# Procedure: Experiments to measure the effect of bicarbonate on bactericidal activity of azithromycin were completed according to a Clinical & Laboratory Standards Institute (CLSI) protocol. Briefly, the various treatments were added to logarithmic-phase culture of MRSA in CA-MHB at the concentrations indicated in FIG. 39 and incubated at 37° C. At time points indicated in FIG. 39, cell suspensions were 10-fold serially diluted using sterile PBS buffer and spread on plates of MHB agar. Bacterial colonies were counted after cultivation at 37° C. for 24 hours.
# [9] = system: macrolide-resistant strain of MRSA; assay: Cellular accumulation of azithromycin by LC-MS/MS; format: cell-based, Staphylococcus aureus; conditions: azithromycin 512 μg/mL, 10 minutes contact
# Procedure: A method to measure azithromycin accumulation into a macrolide-resistant strain of MRSA was adapted from a protocol described in Richter et al., Nature 545, pp. 299-304 (2017). Liquid chromatography with tandem mass spectroscopy (LC-MS/MS) was used to quantify accumulation of azithromycin in the absence or presence of 50 mM sodium bicarbonate. Azithromycin was used at 512 μg/mL (because the strain is macrolide-resistant). The azithromycin (in the absence or presence of bicarbonate) was in contact with the MRSA for 10 minutes.
# P. aeruginosa CA1216 = assay: Mouse model of skin infection, neutropenic Balb/c mice; format: in vivo, Pseudomonas aeruginosa; conditions: topical 200 μg/mL azithromycin with 40 mM sodium bicarbonate, 25 hours post-infection
# Procedure: The effect of bicarbonate on antimicrobial activity of azithromycin against P. aeruginosa was tested in a mouse model of skin infection. Balb/c mice (6-8 weeks old, female) were rendered neutropenic. Mice were treated with cyclophosphamide on day −4 (150 mg/kg) and day −1 (100 mg/kg). The following compositions were prepared: (1) Vehicle: 5 mg/mL MC, 1% DMSO; […] A 10 mg/mL methylcellulose (MC) solution was made from methylcellulose 4000 cp. 100 mL of sterile water was heated in a microwave for 30 seconds prior to adding to MC to improve solubility. The composition was shaken on a vortex for ˜20 min to completely dissolve. The compositions for mouse treatments were prepared as follows: (1) Vehicle: 980 μL sterile water, 20 μL, DMSO, 1 mL MC (10 mg/mL); […] Each composition was vortexed after preparation. […] The inoculum was diluted and plated on LB to quantify colony-forming units (CFU). The mice were weighed. Buprenorphine IP (0.025 mg/kg) was administered as an analgesic. To anaesthetize the mice, isoflurane (gaseous anesthetic) was administered. […] The fur was stripped from the back of the neck using autoclave tape. An area of ˜2 cm^2 was tape stripped by applying and removing the tape 25-30 times. […] Mice were placed into a recovery cage and monitored until the righting reflex returned. Mice were singly housed and monitored after infection. […]
# [10] = system: methicillin-resistant Staphylococcus aureus (MRSA); assay: Susceptibility testing of MRSA clinical isolates (n=100); format: cell-based; conditions: for MIC50 / MIC90 / MIC: Staphylococcus aureus, MRSA
# Procedure: as §2, §3
# P. aeruginosa [11] = assay: Checkerboard azithromycin and sodium bicarbonate against P. aeruginosa; format: cell-based, Pseudomonas aeruginosa
# Procedure: (§4) Standard checkerboard broth microdilution assays were set-up in 96-well microtiter plates with serially diluted 8 (or 10) concentrations of each drug (or bicarbonate), using the conditions based on CLSI guidelines, as noted above. All checkerboards were conducted in duplicate.
# (§5) To assess the dose-dependence of the interaction of azithromycin and bicarbonate, standard microbroth checkerboard techniques in MRSA and P. aeruginosa were used. For both pathogens, enhancement of the activity of azithromycin was further pronounced with increasing concentrations of sodium bicarbonate, as shown in FIG. 34A and FIG. 34B, respectively. This is consistent in various different isolates of the pathogens. Evident within these checkerboards is the inherent resistance of MRSA and P. aeruginosa to azithromycin in the absence of bicarbonate, where >64 μg/mL of azithromycin was required to inhibit growth to less than 10% growth.
# S. pneumoniae = assay: Susceptibility testing of conjunctival isolates of S. pneumoniae; format: cell-based; conditions: Streptococcus pneumoniae, bicarbonate as in label
# Procedure: as §2
# Antimicrobial sensitivity of the pathogenic strains was determined in compliance with the CLSI protocol. […] Plates were incubated for 18 hours at 37° C. and read at 600 nm on a Tecan, infinite M1000 PRO plate reader. […]
# MRSA [12] = assay: Checkerboard azithromycin and sodium bicarbonate against MRSA; format: cell-based, Staphylococcus aureus
# Procedure: as §4, §5
# [13] = MRSA isolates, in the presence of 50 mM bicarbonate
# [14] = n = 100 isolates, bicarbonate as in label
# [15] = increasing concentrations of sodium bicarbonate
structure (smiles),measurement,setting,value
O=C([O-])O.[Na+] [Sodium bicarbonate],MIC,Enterococcus faecium,50 to 100 mM
same,reduction of intracellular ATP levels compared to untreated control,E. coli [1],~30%
same,reduction of cellular respiration,"E. coli [1]; INT to INT-formazan, 60 min",70%
same,uptake of DiSC3(5),S. aureus [2],increased uptake
same,FIC Index (with pentamidine in S. aureus),S. aureus [3],0.31
same,MIC of dirithromycin in the presence of the salt,"E. coli [4]; E. coli, salt at 25 mM, pH adjusted to 7.4",4 µg/mL
same,MIC,E. coli [4]; Escherichia coli,100 mM
same,MIC,Pseudomonas aeruginosa,>100 mM
same,MIC,Klebsiella pneumoniae,100 mM
same,change in cytoplasmic pH,S. aureus [5],rapid cytoplasmic alkalinization
same,MIC,Acinetobacter baumannii,50 mM
same,MIC,S. aureus [6],50 to 100 mM
CC[C@H]1OC(=O)[C@H](C)[C@@H](O[C@H]2C[C@@](C)(OC)[C@@H](O)[C@H](C)O2)[C@H](C)[C@@H](O[C@@H]2O[C@H](C)C[C@H](N(C)C)[C@H]2O)[C@](C)(O)C[C@@H](C)CN(C)[C@H](C)[C@@H](O)[C@]1(C)O [Azithromycin],MIC50,P. aeruginosa [7],64 µg/mL
same,MIC90,P. aeruginosa [7],256 µg/mL
same,MIC,P. aeruginosa [7]; read-out: Maximum MIC obtained,> 256 µg/mL
same,MIC,P. aeruginosa [7]; read-out: Minimum MIC obtained,0.5 µg/mL
same,bactericidal action in the presence vs absence of bicarbonate,MRSA [8],superior bactericidal action
same,increase in accumulation in the presence of 50 mM bicarbonate,[9],approximately 2.5 fold
same,effect of bicarbonate on antimicrobial activity in vivo (CFU),P. aeruginosa CA1216,enhanced
same,eradication rate,"[10]; MRSA isolates, 50 mM bicarbonate added",90%
same,eradication rate,"[10]; MRSA isolates, without bicarbonate",7%
same,MIC50,[10]; [13],1 µg/mL
same,MIC90,[10]; [13],2 µg/mL
same,MIC50,[10]; [14],128 µg/mL
same,MIC90,[10]; [14],> 256 µg/mL
same,MIC,"[10]; n = 100 isolates, bicarbonate as in label, read-out: Maximum MIC obtained",> 256 µg/mL
same,MIC,"[10]; n = 100 isolates, bicarbonate as in label, read-out: Minimum MIC obtained",1 µg/mL
same,concentration required to inhibit growth to less than 10% growth,P. aeruginosa [11]; in the absence of bicarbonate,> 64 µg/mL
same,dose-dependence of the interaction with sodium bicarbonate,P. aeruginosa [11]; [15],enhancement
same,MIC,"S. pneumoniae; macrolide-resistant S. pneumoniae strain, read-out: MIC, #1186268 (R)",32 µg/mL
same,MIC,"S. pneumoniae; macrolide-susceptible S. pneumoniae strain, read-out: MIC, #1173373 (S)",0.25 µg/mL
same,concentration required to inhibit growth to less than 10% growth,MRSA [12]; in the absence of bicarbonate,> 64 µg/mL
same,dose-dependence of the interaction with sodium bicarbonate,MRSA [12]; [15],enhancement
